Data: US20110190235A1, “BORON-CONTAINING SMALL MOLECULES AS ANTIPROTOZOAL AGENTS” (Anacor Pharmaceuticals, Inc., priority 2009, published 2011)
Read-outs that look alike come from different tables or passages of the source.

Columns and labels:
[1] = test system: bloodstream-form trypanosome T. brucei brucei 427 strain; test: Trypanosoma brucei brucei high-throughput in vitro drug sensitivity assay (resazurin); type: cell-based; conditions: for IC50: Trypanosoma brucei, 72 hrs incubation; for Selectivity Index (L929 IC50 / T. b. brucei IC50): T. b. brucei vs L929
[2] = L929 cytotoxicity evaluation (resazurin); type: cell-based; conditions: mouse, L929 mouse fibroblast cells; 72 hrs incubation; read-out: Cytotox L-929 IC50
Description: For evaluation of compound effects on mammalian cells, L929 mouse fibroblast cells were used. Cells were maintained as adherent cultures in T-25 vented cap flasks in a humidified incubator at 37° C. in the presence of 5% CO2. Culture media was D-MEM supplemented with 10% fetal bovine serum and 1% penicillin/streptomycin. L929 cells were maintained below confluent levels by sub-culturing at 1:10 dilution twice weekly using 0.05% trypsin for detachment.
Sub-confluent L929 cells were trypsinized, resuspended in fresh media and 10 uL was counted using hemocytometer to determine cell concentration. Cells were diluted to 1×10^4/mL in DMEM, dispensed (100 uL) into 96-well plates using a Multidrop 384 dispenser and allowed to attach overnight. Spent media was replaced with 99.5 uL fresh D-MEM and compounds to be tested were serially diluted in DMSO and 0.5 uL added using a Biomek NX liquid handler. Plates were incubated with compounds for 72 hrs at 37° C. with 5% CO2. Resazurin (20 uL of 12.5 mg/ml stock) from Sigma-Aldrich was added to each well and plates were incubated for an additional 3-4 hrs. Assay plates were read using an EnVision plate reader at an excitation wavelength of 544 nm and emission of 590 nm. Single data points were used to generate sigmoidal dose response curves and determine IC50 values using XLfit curve fitting software from IDBS (Guildford, UK).

IC50 ([1]; read-out: T.b. brucei IC50) [µg/mL] | Compound | IC50 at 72 h [2] [µg/mL] | Selectivity Index (L929 IC50 / T. b. brucei IC50) [1] | IC50 ([1]; read-out: T. b. brucei IC50) [µM]
0.407 | CC1(C)OB(O)c2cc(NC(=O)c3ccc(OC(F)(F)F)cc3)ccc21 [compound 53, N-(1-Hydroxy-3,3-dimethyl-1,3-dihydro-benzo[c][1,2]oxaborol-6-yl)-4-trifluoromethoxy-benzamide] | > 10 |  | 
0.571 | CC1(C)OB(O)c2cc(NC(=O)c3ccc(SC(F)(F)F)cc3)ccc21 [compound 54, N-(1-Hydroxy-3,3-dimethyl-1,3-dihydro-benzo[c][1,2]oxaborol-6-yl)-4-trifluoromethylsulfanyl-benzamide] | > 10 |  | 
0.122 | CC1(C)OB(O)c2cc(NC(=O)c3ccccc3[N+](=O)[O-])ccc21 [compound 55, N-(1-Hydroxy-3,3-dimethyl-1,3-dihydro-benzo[c][1,2]oxaborol-6-yl)-2-nitro-benzamide] | > 10 |  | 
> 5 | CC1(C)OB(O)c2cc(NC(=O)c3ccc([N+](=O)[O-])cc3)ccc21 [compound 56, N-(1-Hydroxy-3,3-dimethyl-1,3-dihydro-benzo[c][1,2]oxaborol-6-yl)-4-nitro-benzamide] | > 10 |  | 
> 5 | CC1(C)OB(O)c2cc(NC(=O)c3ccc(C#N)cc3)ccc21 [compound 57, 4-Cyano-N-(1-hydroxy-3,3-dimethyl-1,3-dihydro-benzo[c][1,2]oxaborol-6-yl)-benzamide] | > 10 |  | 
1.11 | COC(=O)c1ccc(C(=O)Nc2ccc3c(c2)B(O)OC3(C)C)cc1 [compound 58, N-(1-Hydroxy-3,3-dimethyl-1,3-dihydro-benzo[c][1,2]oxaborol-6-yl)-terephthalamic acid methyl ester] | > 10 |  | 
1.61 | CC(=O)Nc1ccc(C(=O)Nc2ccc3c(c2)B(O)OC3(C)C)cc1 [compound 59, 4-Acetylamino-N-(1-hydroxy-3,3-dimethyl-1,3-dihydro-benzo[c][1,2]oxaborol-6-yl)-benzamide] | > 10 |  | 
0.205 | CC1(C)OB(O)c2cc(NC(=O)c3ccc(-c4cccs4)cc3)ccc21 [compound 60, N-(1-Hydroxy-3,3-dimethyl-1,3-dihydro-benzo[c][1,2]oxaborol-6-yl)-4-thiophen-2-yl-benzamide] | > 10 |  | 
1.6 | CC1(C)OB(O)c2cc(NC(=O)c3ccc(N4CCOCC4)cc3)ccc21 [compound 61, N-(1-Hydroxy-3,3-dimethyl-1,3-dihydro-benzo[c][1,2]oxaborol-6-yl)-4-morpholin-4-yl-benzamide] | > 10 |  | 
0.365 | CC1(C)OB(O)c2cc(NC(=O)c3ccc(-c4ccccc4)cc3)ccc21 [compound 62, Biphenyl-4-carboxylic acid (1-hydroxy-3,3-dimethyl-1,3-dihydro-benzo[c][1,2]oxaborol-6-yl)-amide] | > 10 |  | 
0.724 | CC1(C)OB(O)c2cc(NC(=O)c3c(F)cccc3F)ccc21 [compound 64, 2,6-Difluoro-N-(1-hydroxy-3,3-dimethyl-1,3-dihydro-benzo[c][1,2]oxaborol-6-yl)-benzamide] | > 10 |  | 
0.292 | CC1(C)OB(O)c2cc(NC(=O)c3cccc(Cl)c3Cl)ccc21 [compound 66, 2,3-Dichloro-N-(1-hydroxy-3,3-dimethyl-1,3-dihydro-benzo[c][1,2]oxaborol-6-yl)-benzamide] | > 10 |  | 
> 5 | CC1(C)OB(O)c2cc(NC(=O)c3ccc(Cl)c(Cl)c3)ccc21 [compound 67, 3,4-Dichloro-N-(1-hydroxy-3,3-dimethyl-1,3-dihydro-benzo[c][1,2]oxaborol-6-yl)-benzamide] | > 10 |  | 
2.23 | CC1(C)OB(O)c2cc(NC(=O)c3c(Cl)cccc3Cl)ccc21 [compound 68, 2,6-Dichloro-N-(1-hydroxy-3,3-dimethyl-1,3-dihydro-benzo[c][1,2]oxaborol-6-yl)-benzamide] | > 10 |  | 
0.377 | CC1(C)OB(O)c2cc(NC(=O)c3cccc(Cl)c3F)ccc21 [compound 70, 3-Chloro-2-fluoro-N-(1-hydroxy-3,3-dimethyl-1,3-dihydro-benzo[c][1,2]oxaborol-6-yl)-benzamide] | > 10 |  | 
0.697 | CC1(C)OB(O)c2cc(NC(=O)c3ccc(Cl)cc3F)ccc21 [compound 71, 4-Chloro-2-fluoro-N-(1-hydroxy-3,3-dimethyl-1,3-dihydro-benzo[c][1,2]oxaborol-6-yl)-benzamide] | > 10 |  | 
0.407 | CC1(C)OB(O)c2cc(NC(=O)c3cc(Cl)ccc3F)ccc21 [compound 72, 5-Chloro-2-fluoro-N-(1-hydroxy-3,3-dimethyl-1,3-dihydro-benzo[c][1,2]oxaborol-6-yl)-benzamide] | > 10 |  | 
2.44 | CC1(C)OB(O)c2cc(NC(=O)c3c(F)cccc3Cl)ccc21 [compound 73, 2-Chloro-6-fluoro-N-(1-hydroxy-3,3-dimethyl-1,3-dihydro-benzo[c][1,2]oxaborol-6-yl)-benzamide] | > 10 |  | 
0.405 | CC1(C)OB(O)c2cc(NC(=O)c3ccc(Cl)cc3Br)ccc21 [compound 75, 2-Bromo-4-chloro-N-(1-hydroxy-3,3-dimethyl-1,3-dihydro-benzo[c][1,2]oxaborol-6-yl)-benzamide] | > 10 |  | 
0.05 | CC1(C)OB(O)c2cc(NC(=O)c3ccc(I)cc3Cl)ccc21 [compound 77, 2-Chloro-N-(1-hydroxy-3,3-dimethyl-1,3-dihydro-benzo[c][1,2]oxaborol-6-yl)-4-iodo-benzamide] | > 10 |  | 
1.1 | Cc1ccc(C(=O)Nc2ccc3c(c2)B(O)OC3(C)C)c(C)c1 [compound 78, N-(1-Hydroxy-3,3-dimethyl-1,3-dihydro-benzo[c][1,2]oxaborol-6-yl)-2,4-dimethyl-benzamide] | > 10 |  | 
1.1 | CC1(C)OB(O)c2cc(NC(=O)c3ccc(C(F)(F)F)cc3C(F)(F)F)ccc21 [compound 79, N-(1-Hydroxy-3,3-dimethyl-1,3-dihydro-benzo[c][1,2]oxaborol-6-yl)-2,4-bis-trifluoromethyl-benzamide] | > 10 |  | 
> 5 | CC1(C)OB(O)c2cc(NC(=O)c3cc(C(F)(F)F)cc(C(F)(F)F)c3)ccc21 [compound 80, N-(1-Hydroxy-3,3-dimethyl-1,3-dihydro-benzo[c][1,2]oxaborol-6-yl)-3,5-bis-trifluoromethyl-benzamide] | > 10 |  | 
0.183 | CC1(C)OB(O)c2cc(NC(=O)c3cc(C(F)(F)F)ccc3C(F)(F)F)ccc21 [compound 81, N-(1-Hydroxy-3,3-dimethyl-1,3-dihydro-benzo[c][1,2]oxaborol-6-yl)-2,5-bis-trifluoromethyl-benzamide] | > 10 |  | 
0.543 | CC1(C)OB(O)c2cc(NC(=O)c3cccc(C(F)(F)F)c3F)ccc21 [compound 83, 2-Fluoro-N-(1-hydroxy-3,3-dimethyl-1,3-dihydro-benzo[c][1,2]oxaborol-6-yl)-3-trifluoromethyl-benzamide] | > 10 |  | 
0.533 | CC1(C)OB(O)c2cc(NC(=O)c3ccc(C(F)(F)F)cc3F)ccc21 [compound 84, 2-Fluoro-N-(1-hydroxy-3,3-dimethyl-1,3-dihydro-benzo[c][1,2]oxaborol-6-yl)-4-trifluoromethyl-benzamide] | > 10 |  | 
1.14 | CC1(C)OB(O)c2cc(NC(=O)c3cc(C(F)(F)F)ccc3F)ccc21 [compound 85, 2-Fluoro-N-(1-hydroxy-3,3-dimethyl-1,3-dihydro-benzo[c][1,2]oxaborol-6-yl)-5-trifluoromethyl-benzamide] | > 10 |  | 
0.425 | CC1(C)OB(O)c2cc(NC(=O)c3c(F)cccc3C(F)(F)F)ccc21 [compound 86, 2-Fluoro-N-(1-hydroxy-3,3-dimethyl-1,3-dihydro-benzo[c][1,2]oxaborol-6-yl)-6-trifluoromethyl-benzamide] | > 10 |  | 
3.88 | Cc1cc(F)ccc1C(=O)Nc1ccc2c(c1)B(O)OC2(C)C [compound 87, 4-Fluoro-N-(1-hydroxy-3,3-dimethyl-1,3-dihydro-benzo[c][1,2]oxaborol-6-yl)-2-methyl-benzamide] | > 10 |  | 

Compound | IC50 ([1]; read-out: T.b. brucei IC50) [µg/mL] | IC50 at 72 h [2] [µg/mL] | Selectivity Index (L929 IC50 / T. b. brucei IC50) [1] | IC50 ([1]; read-out: T. b. brucei IC50) [µM]
CC1(C)OB(O)c2cc(NC(=O)c3ccc(F)cc3F)ccc21 [compound 63, 2,4-Difluoro-N-(1-hydroxy-3,3-dimethyl-1,3-dihydro-benzo[c][1,2]oxaborol-6-yl)-benzamide] | 2.66 | > 10 | >4 | 8.39
CC1(C)OB(O)c2cc(NC(=O)c3ccc(F)cc3Br)ccc21 [compound 74, 2-Bromo-4-fluoro-N-(1-hydroxy-3,3-dimethyl-1,3-dihydro-benzo[c][1,2]oxaborol-6-yl)-benzamide] | 0.564 | > 10 | >18 | 1.49
